Literature values as cited in patent US20100029716A1, “NOVEL 1,2,3,4- TETRAHYDROQUINOLINE DERIVATIVES” (CONCERT PHARMACEUTICALS, INC., priority 2006, published 2010).

How the values were obtained:
[1] = test system: atherosclerotic lesions; conditions: rabbit model of atherosclerosis
[2] = target: T1, human CETP (Homo sapiens, UniProt P11597); conditions: transgenic hCETP mice
T1 construct: host or cells: transgenic mice expressing human CETP and apolipoprotein A1 (hCETP mice)
T1 sequence (P11597 18-493): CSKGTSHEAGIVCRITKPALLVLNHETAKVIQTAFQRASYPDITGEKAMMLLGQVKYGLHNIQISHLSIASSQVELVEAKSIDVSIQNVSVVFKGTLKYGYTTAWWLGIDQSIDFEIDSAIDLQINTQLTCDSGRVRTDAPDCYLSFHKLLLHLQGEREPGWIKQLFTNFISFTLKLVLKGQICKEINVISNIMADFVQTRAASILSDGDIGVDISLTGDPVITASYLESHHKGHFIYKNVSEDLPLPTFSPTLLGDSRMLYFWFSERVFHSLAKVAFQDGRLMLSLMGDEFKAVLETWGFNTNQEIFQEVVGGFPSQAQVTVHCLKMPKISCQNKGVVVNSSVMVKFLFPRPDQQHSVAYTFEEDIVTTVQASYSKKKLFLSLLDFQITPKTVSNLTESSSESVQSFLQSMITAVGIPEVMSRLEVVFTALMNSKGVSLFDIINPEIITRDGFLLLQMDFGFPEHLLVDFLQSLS

[3] = healthy volunteers, 14-day dosing period
[4] = conventional formulations

rate of cholesterol oleate transfer from LDL donor particles to HDL [2]: decreased rates
HDL cholesterol ([2]; multiple dosing): increased HDL cholesterol
aqueous solubility: poor
oral bioavailability [4]: low
SMILES: CCOC(=O)N1c2ccc(C(F)(F)F)cc2[C@@H](N(Cc2cc(C(F)(F)F)cc(C(F)(F)F)c2)C(=O)OC)C[C@H]1CC [Compound 1, (2R,4S)-ethyl 4-((3,5-bis(trifluoromethyl)benzyl)-(methoxycarbonyl)amino)-2-ethyl-6-(trifluoromethyl)-3,4-dihydroquinoline-1(2H)-carboxylate]
formation of atherosclerotic lesions [1]: reduce the formation of atherosclerotic lesions
increase of HDL cholesterol levels [3]: up to 91%
reduction of LDL cholesterol [3]: up to 42%
